In brackets after ≈: the same amount, converted by molar mass. Read-outs that look alike come from different tables or passages of the source.
Legend:
Test in all cases: In vitro antibacterial activity test (broth microdilution)
Type in all cases: cell-based
[1] = test system: A. baumannii 46
Outline: (§1)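 MIC90 was determined by CLSI broth microdilution against clinical isolates, as the lowest concentration inhibiting visible growth of 90% of organisms relative to untreated control. Final compound concentrations spanned 0.0626–128 ug/mL with 2.5% (V/V) DMSO.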

[2] = test system: A. baumannii 49
Outline: as §1

[3] = test system: A. baumannii 52; details: Acinetobacter baumannii
Outline: as §1

[4] = test system: A. calcoaceticus ATCC15473; details: Acinetobacter calcoaceticus
Outline: as §1

[5] = test system: E. cloacae β19; details: Enterobacter cloacae
Outline: as §1

[6] = test system: E. coli AG100; details: Escherichia coli
Outline: as §1

[7] = test system: E. coli β4; details: Escherichia coli
Outline: as §1

[8] = test system: K. pneumoniae 2011E; details: Klebsiella pneumoniae, 2011E
Outline: as §1

[9] = test system: K. pneumoniae β10; details: Klebsiella pneumoniae
Outline: as §1

[10] = test system: K. pneumoniae β11; details: Klebsiella pneumoniae
Outline: as §1

[11] = test system: K. pneumoniae β13; details: Klebsiella pneumoniae
Outline: as §1

[12] = test system: K. pneumoniae β14; details: Klebsiella pneumoniae
Outline: as §1

[13] = test system: K. pneumoniae β9; details: Klebsiella pneumoniae
Outline: as §1

[14] = test system: M. catarrhalis 2524; details: Moraxella catarrhalis
Outline: as §1

[15] = test system: P. aeruginosa 1912E; details: Pseudomonas aeruginosa, 1912E
Outline: as §1

[16] = test system: P. aeruginosa 37; details: Pseudomonas aeruginosa, 37, P. aeruginosa 37
Outline: as §1

[17] = test system: P. aeruginosa 40
Outline: as §1

[18] = test system: P. aeruginosa 43; details: Pseudomonas aeruginosa
Outline: as §1

[19] = test system: P. aeruginosa 6065Y; details: Pseudomonas aeruginosa
Outline: as §1

[20] = Acinetobacter baumannii, A. baumannii 46, read-out: MIC90
[21] = Acinetobacter baumannii, A. baumannii 49, read-out: MIC90
[22] = A. baumannii 52, read-out: MIC90
[23] = A. calcoaceticus ATCC15473, read-out: MIC90
[24] = AG100, E. coli AG100, read-out: MIC90
[25] = K. pneumoniae 2011E, read-out: MIC90
[26] = K. pneumoniae β10, read-out: MIC90
[27] = K. pneumoniae β11, read-out: MIC90
[28] = K. pneumoniae β13, read-out: MIC90
[29] = K. pneumoniae β9, read-out: MIC90
[30] = M. catarrhalis 2524, read-out: MIC90
[31] = Pseudomonas aeruginosa, 40, P. aeruginosa 40, read-out: MIC90
[32] = P. aeruginosa 43, read-out: MIC90

C[C@H](O/N=C(\C(=O)N[C@@H]1C(=O)N2C(C(=O)[O-])=C(C[n+]3cnc(NCCN)c(NCCNC(=O)c4cc(=O)c(O)cn4O)c3)CSC12)c1nc(N)sc1Cl)C(=O)O (some centres unmarked) [Compound 21]
MIC90 ([1]; Acinetobacter baumannii, 46, A. baumannii 46): 16 µg/mL (≈ 19.1 µM) | MIC90 ([2]; Acinetobacter baumannii, 49, A. baumannii 49): 8 µg/mL (≈ 9.56 µM) | MIC90 [3]; 52: 2 µg/mL (≈ 2.39 µM) | MIC90 ([4]; ATCC15473, A. calcoaceticus ATCC15473): 1 µg/mL (≈ 1.19 µM) | MIC90 [5]: 16 µg/mL (≈ 19.1 µM) | MIC90 ([6]; AG100): 0.5 µg/mL (≈ 0.597 µM) | MIC90 [7]: 4 µg/mL (≈ 4.78 µM) | MIC90 [8]: 4 µg/mL (≈ 4.78 µM) | MIC90 [9]: 2 µg/mL (≈ 2.39 µM) | MIC90 [10]: 8 µg/mL (≈ 9.56 µM) | MIC90 [11]: 2 µg/mL (≈ 2.39 µM) | MIC90 [12]: 16 µg/mL (≈ 19.1 µM) | MIC90 [13]: 2 µg/mL (≈ 2.39 µM) | MIC90 [14]; 2524: 0.125 µg/mL (≈ 0.149 µM) | MIC90 [15]: 4 µg/mL (≈ 4.78 µM) | MIC90 [16]: 32 µg/mL (≈ 38.2 µM) | MIC90 ([17]; Pseudomonas aeruginosa, 40): 8 µg/mL (≈ 9.56 µM) | MIC90 [18]; 43: 2 µg/mL (≈ 2.39 µM) | MIC90 ([19]; 6065Y): 4 µg/mL (≈ 4.78 µM)

CC(C)(O/N=C(\C(=O)N[C@@H]1C(=O)N2C(C(=O)[O-])=C(C[n+]3cnc(N)c(NC(=O)c4cc(=O)c(O)cn4O)c3)CSC12)c1nc(N)sc1Cl)C(=O)O (some centres unmarked) [Compound 22]
MIC90 [1, 20]: 128 µg/mL (≈ 167 µM) | MIC90 [2, 21]: 16 µg/mL (≈ 20.9 µM) | MIC90 [3, 22]: 2 µg/mL (≈ 2.61 µM) | MIC90 [4, 23]: 0.5 µg/mL (≈ 0.653 µM) | MIC90 ([5]; read-out: MIC90): 32 µg/mL (≈ 41.8 µM) | MIC90 [6, 24]: 2 µg/mL (≈ 2.61 µM) | MIC90 ([7]; read-out: MIC90): 32 µg/mL (≈ 41.8 µM) | MIC90 [8, 25]: 16 µg/mL (≈ 20.9 µM) | MIC90 [9, 26]: 1 µg/mL (≈ 1.31 µM) | MIC90 [10, 27]: 64 µg/mL (≈ 83.6 µM) | MIC90 [11, 28]: 2 µg/mL (≈ 2.61 µM) | MIC90 ([12]; read-out: MIC90): 128 µg/mL (≈ 167 µM) | MIC90 [13, 29]: 8 µg/mL (≈ 10.5 µM) | MIC90 [14, 30]: 0.5 µg/mL (≈ 0.653 µM) | MIC90 ([15]; read-out: MIC90): 2 µg/mL (≈ 2.61 µM) | MIC90 ([16]; read-out: MIC90): 1 µg/mL (≈ 1.31 µM) | MIC90 [17, 31]: 2 µg/mL (≈ 2.61 µM) | MIC90 [18, 32]: 0.5 µg/mL (≈ 0.653 µM) | MIC90 ([19]; read-out: MIC90): 2 µg/mL (≈ 2.61 µM)

CC(C)(O/N=C(\C(=O)N[C@@H]1C(=O)N2C(C(=O)[O-])=C(/C=C/C[n+]3cnc(N)c(NCCCCNC(=O)c4cc(=O)c(O)cn4O)c3)CSC12)c1csc(N)n1)C(=O)O (some centres unmarked) [Compound 23]
MIC90 [1, 20]: 4 µg/mL (≈ 4.83 µM) | MIC90 [2, 21]: > 128 µg/mL | MIC90 [3, 22]: > 128 µg/mL | MIC90 [4, 23]: 1 µg/mL (≈ 1.21 µM) | MIC90 ([5]; read-out: MIC90): 2 µg/mL (≈ 2.42 µM) | MIC90 [6, 24]: < 0.0625 µg/mL | MIC90 ([7]; read-out: MIC90): < 0.0625 µg/mL | MIC90 [8, 25]: 1 µg/mL (≈ 1.21 µM) | MIC90 [9, 26]: < 0.0625 µg/mL | MIC90 [10, 27]: 64 µg/mL (≈ 77.3 µM) | MIC90 [11, 28]: < 0.0625 µg/mL | MIC90 ([12]; read-out: MIC90): 4 µg/mL (≈ 4.83 µM) | MIC90 [13, 29]: < 0.0625 µg/mL | MIC90 [14, 30]: 0.25 µg/mL (≈ 0.302 µM) | MIC90 ([15]; read-out: MIC90): 1 µg/mL (≈ 1.21 µM) | MIC90 ([16]; read-out: MIC90): 0.25 µg/mL (≈ 0.302 µM) | MIC90 [17, 31]: 0.5 µg/mL (≈ 0.604 µM) | MIC90 [18, 32]: 1 µg/mL (≈ 1.21 µM) | MIC90 ([19]; read-out: MIC90): 2 µg/mL (≈ 2.42 µM)

C[C@H](O/N=C(\C(=O)N[C@@H]1C(=O)N2C(C(=O)[O-])=C(/C=C/C[n+]3cnc(N)c(NCCNC(=O)c4cc(=O)c(O)cn4O)c3)CSC12)c1nc(N)sc1Cl)C(=O)O (some centres unmarked) [Compound 24]
MIC90 [1, 20]: 2 µg/mL (≈ 2.44 µM) | MIC90 [2, 21]: 32 µg/mL (≈ 39 µM) | MIC90 [3, 22]: 16 µg/mL (≈ 19.5 µM) | MIC90 [4, 23]: 0.5 µg/mL (≈ 0.61 µM) | MIC90 ([5]; read-out: MIC90): 0.5 µg/mL (≈ 0.61 µM) | MIC90 [6, 24]: < 0.0625 µg/mL | MIC90 ([7]; read-out: MIC90): < 0.0625 µg/mL | MIC90 [8, 25]: 0.5 µg/mL (≈ 0.61 µM) | MIC90 [9, 26]: < 0.0625 µg/mL | MIC90 [10, 27]: 2 µg/mL (≈ 2.44 µM) | MIC90 [11, 28]: 0.125 µg/mL (≈ 0.152 µM) | MIC90 ([12]; read-out: MIC90): 4 µg/mL (≈ 4.88 µM) | MIC90 [13, 29]: < 0.0625 µg/mL | MIC90 [14, 30]: < 0.0625 µg/mL | MIC90 ([15]; read-out: MIC90): 0.25 µg/mL (≈ 0.305 µM) | MIC90 ([16]; read-out: MIC90): < 0.0625 µg/mL | MIC90 [17, 31]: 0.25 µg/mL (≈ 0.305 µM) | MIC90 [18, 32]: 0.25 µg/mL (≈ 0.305 µM) | MIC90 ([19]; read-out: MIC90): 0.5 µg/mL (≈ 0.61 µM)

CC(C)(O/N=C(\C(=O)N[C@@H]1C(=O)N2C(C(=O)[O-])=C(/C=C/C[n+]3cnc(N)c(NCCNC(=O)c4cc(=O)c(O)cn4O)c3)CSC12)c1nsc(N)n1)C(=O)O (some centres unmarked) [Compound 25]
MIC90 [1, 20]: 0.5 µg/mL (≈ 0.624 µM) | MIC90 [2, 21]: 128 µg/mL (≈ 160 µM) | MIC90 [3, 22]: 8 µg/mL (≈ 9.99 µM) | MIC90 [4, 23]: 0.25 µg/mL (≈ 0.312 µM) | MIC90 ([5]; read-out: MIC90): 1 µg/mL (≈ 1.25 µM) | MIC90 [6, 24]: < 0.0625 µg/mL | MIC90 ([7]; read-out: MIC90): < 0.0625 µg/mL | MIC90 [8, 25]: 0.25 µg/mL (≈ 0.312 µM) | MIC90 [9, 26]: < 0.0625 µg/mL | MIC90 [10, 27]: > 128 µg/mL | MIC90 [11, 28]: < 0.0625 µg/mL | MIC90 ([12]; read-out: MIC90): 16 µg/mL (≈ 20 µM) | MIC90 [13, 29]: < 0.0625 µg/mL | MIC90 [14, 30]: < 0.0625 µg/mL | MIC90 ([15]; read-out: MIC90): 0.25 µg/mL (≈ 0.312 µM) | MIC90 ([16]; read-out: MIC90): < 0.0625 µg/mL | MIC90 [17, 31]: < 0.0625 µg/mL | MIC90 [18, 32]: 0.25 µg/mL (≈ 0.312 µM) | MIC90 ([19]; read-out: MIC90): 0.5 µg/mL (≈ 0.624 µM)

Reference: patent publication US9630977B2, “Cephalosporin derivatives and pharmaceutical compositions thereof” (Legochem Biosciences, Inc., priority 2011, dated 2017)
